Results taken from patent US4677968A, “Methods of testing the reaction of various substances on living human skin” (priority 1986, dated 1987).

What was measured:
rat/rat flap = assay: Role of blood flow on percutaneous absorption (iontophoresis of phenylephrine), rat/rat flap; type: in vivo; conditions: iontophoresis, circumscribed area
Method: (§1) In this example the experimental procedure described in Example 1 was followed and a rat/rat flap was prepared using an identical procedure. The purpose of this example is to illustrate the role of blood flow on percutaneous absorption processes. In this example, blood flow was locally altered by iontophoresis of phenylephrine. […] The experiment was repeated two weeks later in a nontreated mode, i.e., no alteration in the microcirculation. […] In the situtaton where there is no alteration in the mircocirculation, peak levels occur in approximately 10 minutes. There results reveal that in situations, where compounds are rapidly absorbed, microcirculation to the skin is of critical importance.

[1] = test system: host rat graft or human graft (rat skin vs. human skin); conditions: in vivo
Text: The objective of this experiment was to determine differences in absorption, rat skin vs. human skin, rat graft vs. rat host skin, with a second agent, caffeine.

human skin = assay: In vitro topical application of caffeine to human skin; type: in vitro ADME
Method: (§2) Compounds will frequently bind to the skin. Thus, after being absorbed through the outer protective layer, the stratum corneum, there is a possibility that the compound being tested will not be absorbed into the blood stream. It is anticipated that caffeine could be such a product. […] It is surprising to observe peak levels of caffeine within 30 minutes of topical application in the in vivo situation using the system described in Example 1. […] This confirmed the notion that there are binding sites of caffeine within the dermis.

[2] = test system: skin flap (system described in Example 1); assay: In vivo topical application of caffeine in the flap system of Example 1
Method: as §2

[3] = as above; conditions: rat, topical or ocular; in vivo, topical application; read-out: time of peak levels of caffeine
Method: as §2

flap = conditions: rat, in vivo
Text: Following an intravenous injection of fluorescein, the amount of fluorescein that moves into tissue, and the rapidity with which it clears, depends upon the volume of blood to the area, the adequacy of venous drainage, and renal clearance. The influx and clearance of fluorescein, as measured with a surface hand-held dermofluorometer, has been evaluated as a function of time after occluding either the supplying artery or the draining vein.
Instrumentation used included: (1) Dermatome (Brown Electro-Dematome, Model 666, Zimmer Inc., Warsaw, IN) to generate the split-thickness skin grafts; (2) an operating microscope (Model OPMI 6-SD Carl Zeiss, West Germany) equipped with a fiberoptic illuminator (Model 310187, Dyonics, Andover, MA), to isolate the microvasculature supplying the skin flap; (3) Laser Doppler flow velocimeter (LD 5000, Med Pacific, Seattle, WA)--to noninvasively assess microcirculation of the skin; (4) electromagnetic blood flow transducer, C type 0.5 mm, 0.8 mm, and 1 mm in diameter (C&C INstruments, Culver City, CA)--to directly assess blood flow through the vessels supplying and draining the flap; and (5) a hand-held fiberoptic dermofluorometer (Fluoroscan-Santa Barbara Technology, Santa Barbara, CA), to assess blood flow by monitoring the appearance and clearance of fluorescein in the flap.

[4] = test system: rat/rat skin sandwich flap (enzyme in the skin, deaminase); assay: Metabolism of vidarabine in the rat/rat skin sandwich flap; type: in vivo; conditions: radiolabeled vidarabine on rat/rat flap, half-cell diffusion chamber
Text: (§3) In this example, the procedure followed in Example 1 was followed to produce a rat/rat skin flap with accessible vasculature.
Test compounds were applied to either the host or the graft side of the flap. Test compounds in their vehicles were placed in either a 1.5 cm diameter well, prepared from a HolliSeal® skin barrier (a sheet of silicone material with adhesive on both sides) (Hollister Incorporated, Libertyville, IL), or in a half-cell diffusion chamber. The HolliSeal well is generally covered with Parafilm to prevent evaporation. […]
At the time of an experiment, with the animal under Ketamine anesthesia, the vessels supplying and draining the flap were exposed through an incision over the inguinal ligament. […] Concentration of radiolabeled compound, or its metabolities, in the blood were subsequently assessed by liquid scintillation counting and chromatographic techniques. Concentrations in the donor chamber were sampled periodically and quantitated in a similar manner.
Additional experiments, using an antiviral substance, vidarabine, have been performed to assess the metabolic activity in the skin. […] Accordingly, radiolabeled vidarabine was placed on a rat/rat skin sandwich flap system, and the amount of vidarabine and its metabolite, ara-H, was measured in the blood draining the flap.

[5] = test system: rat/rat flap (host skin / grafted skin); assay: Absorption of benzoic acid across host vs. graft side of the rat/rat skin flap (flap blood sampling); type: in vivo
Text: Breeding pairs of nude rats were obtained from the Animal Production Facility of the National Cancer Institutes (Frederick, MD) and the colony was expanded by mating male rats homozygous for nude (athymic) with females heterozygous for nude.
(§4) A skin flap was generated by incising the abdominal skin of the rat along three sides. The donor STSG was trimmed to approximate the size of the epigastric flap and was placed in the wound, with the epidermis facing the abdominal musculature of the host. The overlying epigastric host skin was returned to its normal anatomic position. The epigastric skin and the STSG were sutured in place, creating a sandwich having a vascular pedicle sandwiched between the skin layers. This surgical procedure produced a flap which received essentially all of its blood from the superficial epigastric vessels.
(§5) Two weeks later, the femoral vessels distal to the origin of the superficial epigastric vessels were surgically isolated and divided. This manipulation maximized the blood flow from the femoral artery to the sandwich flap. The flap was raised and isolated on its neurovascular pedicle (a single artery, vein, and nerve) using the operating microscope.
(§6) The donor site on the rat's abdomen was covered with a STSG from another syngeneic animal and sutured in place. The flap, on its isolated vascular pedicle, was moved through a subcutaneous tunnel to the rat's dorsum, where it was sutured in place.
as §3
Test compounds were applied to either the host or the graft side of the flap. Test compounds in their vehicles were placed in either a 1.5 cm diameter well, prepared from a HolliSeal® skin barrier (a sheet of silicone material with adhesive on both sides) (Hollister Incorporated, Libertyville, IL), or in a half-cell diffusion chamber. The HolliSeal well is generally covered with Parafilm to prevent evaporation. The half-cell diffusion chamber has a 2.7 ml volume, an impeller to avoid problems of unstirred solutions, a water jacket to maintain a constant temperature, and a sampling port (Dependable Scientific Glass, Salt Lake City, UT).
In an initial series of experiments ^14 C benzoic acid, specific activity 58.6 mCi/mM (New England Nuclear, Boston MA) in phosphate buffered saline, was used in various concentrations in the HolliSeal well and the half-cell diffusion chamber. These experiments were designed to compare the absorption of benzoic acid across the host and graft sides of the flap as a means of validating the system. In another series of experiments 3H-vidarabine, specific activity 38 mCi/mg (2.7 ml), was added to a half-cell diffusion chamber to validate the flap as a system to study the metabolism of a drug as it crosses the skin. 3H-vidarabine, specific activity 38 mCi/mg (2.7 ml), was added to a half-cell diffusion chamber attached to rat/rat skin sandwich flaps, which had previously been tape-stripped.
At the time of an experiment, with the animal under Ketamine anesthesia, the vessels supplying and draining the flap were exposed through an incision over the inguinal ligament. A venotomy was made in the femoral vein proximal to the juncture of the superficial epigastric vein to sample flap blood. A venotomy was also made in the contralateral femoral view to sample systemic blood. The blood samples (approximately 40 ul) were collected periodically in heparinized microhematocrit capillary tubes. Concentration of radiolabeled compound, or its metabolities, in the blood were subsequently assessed by liquid scintillation counting and chromatographic techniques. Concentrations in the donor chamber were sampled periodically and quantitated in a similar manner. […]

[6] = Role of blood flow on percutaneous absorption (iontophoresis of phenylephrine), rat/rat flap; type: in vivo; conditions: rat, in vivo, topical or ocular
Method: as §1

[7] = test system: rat/human flap (host side); assay: Transdermal flux of benzoic acid in the rat/human flap, host side; type: in vivo
Text: as §4, §5, §6
Test compounds were applied to either the host or the graft side of the flap. […]
At the time of an experiment, with the animal under Ketamine anesthesia, the vessels supplying and draining the flap were exposed through an incision over the inguinal ligament. […] Concentration of radiolabeled compound, or its metabolities, in the blood were subsequently assessed by liquid scintillation counting and chromatographic techniques. Concentrations in the donor chamber were sampled periodically and quantitated in a similar manner. […]
In this experiment, 20 ug of ^14 C benzoic acid (4.5 uCi) in 95% ethanol was applied to the host side of the flap. […] Thereafter steady state was attained and flux was calculated to be 0.045 uCi/min/cm^2. […]

[8] = test system: rat/rat skin sandwich flap (enzyme in the skin, deaminase); conditions: stated as known; cited from earlier work
[9] = grafted side, three weeks later

CNC[C@H](O)c1cccc(O)c1 [phenylephrine]
effect on local microcirculation (rat/rat flap): decreased microcirculation

Cn1c(=O)c2c(ncn2C)n(C)c1=O [caffeine]
increase in absorption, rat skin relative to human skin [1]: ~8 fold
time until appearance in the donor chamber (human skin; topical, human skin): 6 to 12 h
effect of a second dose on absorption (human skin; two doses): did not alter absorption
effect of a second dose on absorption ([2]; in vivo, two doses): greater than predicted absorption
binding in the skin ([2]; lower layer of skin / dermis, in vitro vs. in vivo comparison): there are binding sites within the lower layer of skin which bind caffeine
Tmax [3]: ≤ 30 min

O=C1OC2(c3ccc(O)cc3Oc3cc(O)ccc32)c2ccccc21 [fluorescein]
appearance of fluorescein in the flap (flap): failure of the appearance of fluorescein in the flap

O=c1[nH]cnc2c1ncn2[C@@H]1O[C@H](CO)[C@@H](O)[C@@H]1O [ara-H]
back-diffusion through the skin into the donor chamber [4]: diffused back through the skin into the donor chamber

O=C(O)c1ccccc1 [benzoic acid]
decrease in concentration in the donor well (time course) ([5]; donor well): linear with time
benzoic acid concentration in the donor well, start of decrease ([5]; donor well, decreasing from): 2.2 µg/mL
benzoic acid concentration in the donor well, end of decrease ([5]; donor well, decreasing to): 0.75 µg/mL
course of flux after the peak [5, 9]: even more rapid decline
peak flux across the grafted side [5, 9]: 2.2 uCi/min/cm^2
course of flux after the peak ([5]; host skin): decreased rapidly
time of peak flux ([5]; host skin, HolliSeal well, 0.52 uCi/ul in unbuffered water, 100 ul): 30 min
flux across host skin ([5]; host skin, assuming a blood flow of 1.5 ml/min): 0.84 uCi/min/cm^2
total amount absorbed ([5]; same for host and grafted side): 1.04 µg·min/µL
Tmax ([6]; decreased microcirculation (iontophoresis of phenylephrine), read-out: time of peak benzoic acid levels in flap blood (converted)): ~140 min
Tmax ([6]; no alteration in the microcirculation, two weeks later, read-out: time of peak levels in flap blood (converted)): ~10 min
steady state flux ([7]; 20 ug (4.5 uCi) in 95% ethanol): 0.045 uCi/min/cm^2
time of peak flux ([7]; 20 ug (4.5 uCi) in 95% ethanol): one
time of peak flux ([7]; half-cell diffusion chamber, maximal hydration of the skin): ≤ 10 min

Nc1ncnc2c1ncn2[C@@H]1O[C@H](CO)[C@@H](O)[C@@H]1O [vidarabine]
metabolism by an enzyme in the skin, deaminase [8]: metabolized by an enzyme in the skin, deaminase
